Assay results reported in patent US9113629B2, “4-amino-6-(4-substituted-phenyl)-picolinates and 6-amino-2-(4-substituted-phenyl)-pyrimidine-4-carboxylates and their use as herbicides” (DOW AGROSCIENCES LLC, priority 2013, dated 2015).

Experiments:
Test in all cases: Post-emergent Test III, herbicidal activity in wheat and barley
Type in all cases: in vivo
[1] = system: VERPE: bird's-eye speedwell (veronica persica); conditions: 21 days after application; for pest or weed control at 35 g/ha / pest or weed control at 70 g/ha: Veronica persica, post-emergence, 504 h, read-out: Visual Gorowth Reduction (%) 21 days After Application VERPE; for pest or weed control at 35 g/ha: 35 g ai/ha; for pest or weed control at 70 g/ha: 70 g ai/ha; for GR50 VERPE / GR80 VERPE: probit analysis; for GR50 VERPE: dose for 50 percent growth reduction; for GR80 VERPE: dose for 80 percent growth reduction
Method in brief: (§1)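 GR20, GR50, GR80 and GR90 come from probit analysis of visual injury scores (0 = none, 100 = complete kill) taken 21 d after treatment. Foliar application was by track sprayer delivering 187 L/ha at five rates, from high down to 1/16×, onto greenhouse plants at the 2–3 leaf stage, with solvent-blank controls.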

[2] = system: KCHSC: kochia (Kochia scoparia); conditions: 21 days after application; for pest or weed control at 35 g/ha / pest or weed control at 70 g/ha: Bassia scoparia, post-emergence, 504 h, read-out: Visual Gorowth Reduction (%) 21 days After Application KCHSC; for pest or weed control at 35 g/ha: 35 g ai/ha; for pest or weed control at 70 g/ha: 70 g ai/ha; for GR50 KCHSC / GR80 KCHSC: probit analysis; for GR50 KCHSC: dose for 50 percent growth reduction; for GR80 KCHSC: dose for 80 percent growth reduction
Method in brief: as §1

[3] = system: TRZSS: wheat, including spring and winter (Triticum aestivum); conditions: 21 days after application; for pest or weed control at 35 g/ha / pest or weed control at 70 g/ha: Triticum aestivum, post-emergence, 504 h, read-out: Visual Gorowth Reduction (%) 21 days After Application TRZSS; for pest or weed control at 35 g/ha: 35 g ai/ha; for pest or weed control at 70 g/ha: 70 g ai/ha; for GR20 TRZSS: probit analysis, dose for 20 percent growth reduction (crop)
Method in brief: as §1

[4] = system: SASKR: Russian thistle (Salsola iberica); conditions: 21 days after application; for pest or weed control at 35 g/ha / pest or weed control at 70 g/ha: Salsola tragus, post-emergence, 504 h, read-out: Visual Gorowth Reduction (%) 21 days After Application SASKR; for pest or weed control at 35 g/ha: 35 g ai/ha; for pest or weed control at 70 g/ha: 70 g ai/ha; for GR50 SASKR / GR80 SASKR: probit analysis; for GR50 SASKR: dose for 50 percent growth reduction; for GR80 SASKR: dose for 80 percent growth reduction
Method in brief: as §1

[5] = system: MATSS: scented mayweed (Matricaria chamomilla), pineappleweed (Matricaria matricarioides); conditions: 21 days after application; for pest or weed control at 35 g/ha / pest or weed control at 70 g/ha: Matricaria chamomilla, post-emergence, 504 h, read-out: Visual Gorowth Reduction (%) 21 days After Application MATSS; for pest or weed control at 35 g/ha: 35 g ai/ha; for pest or weed control at 70 g/ha: 70 g ai/ha; for GR50 MATSS / GR80 MATSS: probit analysis; for GR50 MATSS: dose for 50 percent growth reduction; for GR80 MATSS: dose for 80 percent growth reduction
Method in brief: as §1

[6] = system: VIOSS: wild pansy (Viola tricolor), field violet (Viola arvensis); conditions: 21 days after application; for pest or weed control at 35 g/ha / pest or weed control at 70 g/ha: Viola tricolor, post-emergence, 504 h, read-out: Visual Gorowth Reduction (%) 21 days After Application VIOSS; for pest or weed control at 35 g/ha: 35 g ai/ha; for pest or weed control at 70 g/ha: 70 g ai/ha; for GR50 VIOSS / GR80 VIOSS: probit analysis; for GR50 VIOSS: dose for 50 percent growth reduction; for GR80 VIOSS: dose for 80 percent growth reduction
Method in brief: as §1

[7] = system: HORSS: barley, including spring and winter (Hordeum vulgare); conditions: 21 days after application; for pest or weed control at 35 g/ha / pest or weed control at 70 g/ha: Hordeum vulgare, post-emergence, 504 h, read-out: Visual Gorowth Reduction (%) 21 days After Application HORSS; for pest or weed control at 35 g/ha: 35 g ai/ha; for pest or weed control at 70 g/ha: 70 g ai/ha; for GR20 HORSS: probit analysis, dose for 20 percent growth reduction (crop)
Method in brief: as §1

Row | SMILES | pest or weed control at 35 g/ha [1] | pest or weed control at 70 g/ha [1] | GR50 VERPE [1] | GR80 VERPE [1] | pest or weed control at 35 g/ha [2] | pest or weed control at 70 g/ha [2] | GR50 KCHSC [2] | GR80 KCHSC [2] | pest or weed control at 35 g/ha [3] | pest or weed control at 70 g/ha [3] | GR20 TRZSS [3] | pest or weed control at 35 g/ha [4] | pest or weed control at 70 g/ha [4] | GR50 SASKR [4] | GR80 SASKR [4] | pest or weed control at 35 g/ha [5] | pest or weed control at 70 g/ha [5] | GR50 MATSS [5] | GR80 MATSS [5] | pest or weed control at 35 g/ha [6] | further results
1 | COC(=O)c1nc(-c2ccc(Br)cc2F)c(F)c(N)c1Cl [Compound 52] | 75 to 84% | 95 to 100% | 20 g ai/ha | 37 g ai/ha | 75 to 84% | 85 to 94% | 5 g ai/ha | 38 g ai/ha | 85 to 94% | 85 to 94% | 1 g ai/ha | 60 to 74% | 75 to 84% | 4 g ai/ha | 84 g ai/ha | 0 to 29% | 60 to 74% | 62 g ai/ha | 91 g ai/ha | 95 to 100% | pest or weed control at 70 g/ha [6]: 95 to 100%; GR50 VIOSS [6]: 12 g ai/ha; GR80 VIOSS [6]: 19 g ai/ha; pest or weed control at 35 g/ha [7]: 85 to 94%; pest or weed control at 70 g/ha [7]: 95 to 100%; GR20 HORSS [7]: 1 g ai/ha
2 | COc1c(N)nc(-c2ccc(I)cc2F)nc1C(=O)O [Compound 72] | 85 to 94% | 95 to 100% | 1 g ai/ha | 8 g ai/ha | 60 to 74% | 60 to 74% | 27 g ai/ha | 105 g ai/ha | 75 to 84% | 85 to 94% | 1 g ai/ha | 30 to 44% | 60 to 74% | 48 g ai/ha | 106 g ai/ha | 0 to 29% | 30 to 44% | 126 g ai/ha | >140 g ai/ha | 30 to 44% | pest or weed control at 70 g/ha [6]: 45 to 59%; GR50 VIOSS [6]: 67 g ai/ha; GR80 VIOSS [6]: >140 g ai/ha; pest or weed control at 35 g/ha [7]: 45 to 59%; pest or weed control at 70 g/ha [7]: 60 to 74%; GR20 HORSS [7]: 5 g ai/ha
3 | COc1c(N)nc(-c2ccc(I)c(F)c2F)nc1C(=O)O [Compound 89] | 95 to 100% | 95 to 100% | 3 g ai/ha | 6 g ai/ha | 85 to 94% | 85 to 94% | 12 g ai/ha | 25 g ai/ha | 75 to 84% | 85 to 94% | 1 g ai/ha | 85 to 94% | 85 to 94% | 9 g ai/ha | 21 g ai/ha | 75 to 84% | 85 to 94% | 14 g ai/ha | 36 g ai/ha | 95 to 100% | pest or weed control at 70 g/ha [6]: 95 to 100%; GR50 VIOSS [6]: 11 g ai/ha; GR80 VIOSS [6]: 19 g ai/ha; pest or weed control at 35 g/ha [7]: 60 to 74%; pest or weed control at 70 g/ha [7]: 60 to 74%; GR20 HORSS [7]: 3 g ai/ha
4 | COC(=O)c1nc(-c2ccc(I)c(F)c2F)c(F)c(N)c1Cl [Compound 99] | 95 to 100% | 95 to 100% | 8 g ai/ha | 17 g ai/ha | 75 to 84% | 85 to 94% | 9 g ai/ha | 27 g ai/ha | 85 to 94% | 85 to 94% | 1 g ai/ha | 75 to 84% | 75 to 84% | 10 g ai/ha | 48 g ai/ha | 30 to 44% | 45 to 59% | 63 g ai/ha | >140 g ai/ha | 95 to 100% | pest or weed control at 70 g/ha [6]: 95 to 100%; GR50 VIOSS [6]: 9 g ai/ha; GR80 VIOSS [6]: 19 g ai/ha; pest or weed control at 35 g/ha [7]: 85 to 94%; pest or weed control at 70 g/ha [7]: 95 to 100%; GR20 HORSS [7]: 1 g ai/ha
5 | C#Cc1ccc(-c2nc(C(=O)O)c(Cl)c(N)c2F)c(F)c1 [Compound 108] | 60 to 74% | 75 to 84% | 22 g ai/ha | 67 g ai/ha | 0 to 29% | 0 to 29% | >140 g ai/ha | >140 g ai/ha | 75 to 84% | 75 to 84% | 6 g ai/ha | 0 to 29% | 30 to 44% | 136 g ai/ha | >140 g ai/ha | 30 to 44% | 60 to 74% | 58 g ai/ha | >140 g ai/ha | 30 to 44% | pest or weed control at 70 g/ha [6]: 30 to 44%; GR50 VIOSS [6]: 85 g ai/ha; GR80 VIOSS [6]: >140 g ai/ha; pest or weed control at 35 g/ha [7]: 30 to 44%; pest or weed control at 70 g/ha [7]: 45 to 59%; GR20 HORSS [7]: 16 g ai/ha
